US20080108677A1, “Thioxothiazolidinone Compounds For Use As Pharmaceuticals” (Karyon-CTT Ltd, priority 2004, published 2008)
Blank lines part the entries; values can stand above or below the compound they belong to.

Columns and labels:
[1] = tested on: THP-1 monocytic leukemia cells; experiment: Cell viability/toxicity, THP-1; type: cell-based, Human; conditions: 48 h, serum-containing medium, 50 μM, data not shown
Experimental: (§1) Cell culture. Human monocytic leukemia THP-1, OCI-AML-3 acute myeloid leukemia and human HT1080 fibrosarcoma cells were cultured as described (Koivunen et al., 1999; Koivunen et al., 2001; Stefanidakis et al., 2003). The cell viability was measured using an 3-[4,5-dimethylthiazol-2-yl]-2,5-diphenyl tetrazolium bromide assay as described (Bjorklund et al., 2004).
(§2) We next evaluated the ability of DDGW peptide and the chemicals to compete with antibody binding to immobilized αM I domain-GST fusion. […] The epitope of this antibody is located in the β2 I-like domain (FIG. 4B). […] Before conducting cell-based experiments, we tested possible toxicity of the chemicals. The compounds were incubated with THP-1 monocytic leukemia and OCI-AML-3 acute myeloid leukemia cells for 48 h in serum-containing cell culture medium.

[2] = tested on: OCI-AML-3 acute myeloid leukemia cells; experiment: Cell viability/toxicity, OCI-AML-3; type: cell-based; conditions: 48 h, serum-containing medium, 50 μM, data not shown
Experimental: as §1, §2

THP-1 cells [3] = experiment: THP-1 transwell migration on LLG-C4-GST coating; type: cell-based, Human
Experimental: (§3) Cell adhesion and migration. Cell adhesion was performed as described (Koivunen et al., 2001). Briefly, THP-1 cells (50 000/well) were stimulated with 50 nM PDBu (4β-phorbol-12,13-dibutyrate, SigmaAldrich) and allowed to bind to the fibrinogen coated microtiter wells (10 μg/ml) in the presence or absence of compounds or DMSO in serum-free RPMI medium containing 0.1% BSA. Non-adherent cells were removed by gentle washing with PBS or 2.5 mM EDTA in PBS, and adherent cells were quantitated with a phosphatase assay (Koivunen et al., 2001). Alternatively, THP-1 cells were stimulated with 20 nM PDBu and allowed to adhere on uncoated plastic overnight. Nonadherent cells were removed by washing with PBS followed by six washes with 2.5 mM EDTA in PBS. Cell migration was done using transwells (5 μm pore size) coated with 40 μg/ml LLG-C4-GST or fibrinogen (Koivunen et al., 2001). THP-1 and OCI-AML-3 cells (50 000 cells/100 μl) were allowed to migrate overnight in 10% FBS/RPMI medium in the presence or absence of peptides or compounds and stimulating cell migration with 40 nM PDBu. Gelatinase-selective inhibitor I (InhI) at a 50 μM concentration (Calbiochem) was used to evaluate the level of gelatinase-dependent migration on fibrinogen. Migrated cells were stained with crystal violet and counted (Koivunen et al., 2001). Migration of HT1080 cells on serum coated transwells was conducted as described (Koivunen et al., 1999).

THP-1 cells [4] = experiment: THP-1 transwell migration on fibrinogen; type: cell-based, Human; conditions: 25 μM, 40 nM PDBu
Experimental: as §3, with “Migration of HT1080 cells on serum coated transwells was conducted as described (Koivunen et al., 1999).” left out

OCI-AML-3 cells [5] = experiment: OCI-AML-3 transwell migration on fibrinogen; type: cell-based; conditions: 25 μM, 40 nM PDBu
Experimental: as §3, with “Migration of HT1080 cells on serum coated transwells was conducted as described (Koivunen et al., 1999).” left out

αM I domain = molecular target: T1, αM I domain (Homo sapiens, UniProt P11215); experiment: Inhibition of antibody binding to immobilized αM I domain-GST fusion; conditions: for inhibition at 50 µM: read-out: inhibition of mAb LM2/1 binding
T1 construct: immobilizing 20 ng/well recombinant αM I domain-GST fusion in 96-well plates
Experimental: (§4) Inhibition of antibody binding to the integrins. The αM I domain or purified αMβ2 integrin (50 ng/well) were coated on microtiter wells followed by saturation of the wells with 1% BSA in PBS/0.05% Tween20. The DDGW peptide or the compounds at concentrations indicated were preincubated for 30 minutes with the integrin, followed by addition of the antibodies LM2/1, MEM170, OKM-10, IB4 or a control IgG at a 1 μg/ml final concentration. The antibodies LM2/1 and MEM170 recognize the αM integrin I domain, whereas the epitope for OKM-10 is located outside the αM I domain (Koivunen et al., 2001; Li et al., 1995; Stefanidakis et al., 2003). The antibodies were incubated for 45 minutes followed by detection of the bound antibodies with a peroxidase conjugated anti-mouse antibody.

αM I domain-GST fusion = molecular target: T2, αM I domain-GST fusion (Homo sapiens, UniProt P11215); experiment: DDGW-phage binding competition assay; conditions: dilution series 10 μM to 150 nM; mean of three independent experiments; read-out: IC50 for the inhibition of DDGW-phage binding to the αM I domain
T2 construct: immobilizing 20 ng/well recombinant αM I domain-GST fusion in 96-well plates
Experimental: Screening of the compound library. A combinatorial library of 10 000 small molecules was purchased from ChemBridge (San Diego, Calif.). A competition assay with the DDGW peptide bearing phage was set up by immobilizing 20 ng/well recombinant αM I domain-GST fusion in 96-well plates (Michishita et al., 1993). The compounds were used in pools comprising eight compounds, each at a 5 μM concentration and DMSO at a 1.25% concentration. After preincubation of the compounds in the wells, DDGW phage was added (3×10^8 transducing units/well). As controls, soluble DDGW peptide and a control peptide, and an unrelevant phage were included in every plate. Phage binding was detected with an anti-phage antibody as described (Bjorklund et al., 2004). Pools with inhibitory activity were re-tested as single compounds. The DDGW-phage inhibiting activity of these hits at a 10 μM concentration is shown in supplementary data. To calculate the IC50 values for the compounds, dilution series from the DDGW peptide and compounds were made (10 μM to 150 nM) and DDGW phage binding was measured. No inhibitor (DMSO as a vehicle) was used as 100% binding after subtracting the background value obtained with an irrelevant control phage.

αM I domain / proMMP-9 = molecular target: T3, αM I domain / proMMP-9 (Homo sapiens, UniProt P11215); experiment: proMMP-9 binding to the αM integrin I domain; conditions: 10 μM
T3 construct: Soluble αM integrin I domain-GST fusion (2.5 μg/ml) was added; made in house
Experimental: proMMP-9 and fibrinogen binding to the αM integrin I domain. […] The resulting MMP-9 with this mutation is structurally identical to the wild type protein (Rowsell et al., 2002). ProMMP-9-ΔHC-E^402Q, intact proMMP-9 or fibrinogen (100 ng/well) was coated on microtiter wells in TBS followed by saturation of the wells with 1% BSA in PBS/0.05% Tween20. Soluble αM integrin I domain-GST fusion (2.5 μg/ml) was added in the presence or absence of peptides or compounds in 0.1% BSA/TBS/0.05% Tween20/1 mM CaCl2/1 mM MgCl2, and incubated for one hour. In some experiments 10 mM CaCl2 or 10 mM MgCl2 were used instead of 1 mM CaCl2/1 mM MgCl2. Bound GST fusion was detected with anti-GST antibody (1:2000 dilution) and peroxidase-conjugated anti-goat antibody (1:2000 dilution).

αMβ2 integrin = αMβ2 integrin (Homo sapiens, UniProt P11215); experiment: Inhibition of antibody binding to purified αMβ2 integrin; conditions: 25 μM; epitope in β2 I-like domain
Experimental: as §4

αL I domain = molecular target: T4, αL I domain (Homo sapiens, UniProt P20701); experiment: Antibody binding to αL I domain
T4 sequence (P20701 156-327 limits assumed): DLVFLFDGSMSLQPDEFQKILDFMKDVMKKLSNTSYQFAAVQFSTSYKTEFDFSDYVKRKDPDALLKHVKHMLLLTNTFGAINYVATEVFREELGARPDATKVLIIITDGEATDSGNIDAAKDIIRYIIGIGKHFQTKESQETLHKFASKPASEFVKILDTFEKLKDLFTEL

THP-1 cells [6] = experiment: THP-1 adhesion to uncoated plastic; type: cell-based, Human; conditions: 20 nM PDBu; 25 μM compounds; overnight
Experimental: as §3, with “Migration of HT1080 cells on serum coated transwells was conducted as described (Koivunen et al., 1999).” left out

THP-1 cells [7] = experiment: THP-1 adhesion to fibrinogen; type: cell-based, Human
Experimental: as §3, with “Migration of HT1080 cells on serum coated transwells was conducted as described (Koivunen et al., 1999).” left out

[8] = tested on: HT1080 fibrosarcoma cells; experiment: HT1080 migration on serum coated transwells; type: cell-based, human
Experimental: as §3, with “Migration of HT1080 cells on serum coated transwells was conducted as described (Koivunen et al., 1999).” left out

OCI-AML-3 cells [9] = experiment: Pericellular gelatinase-dependent uPAR cleavage; type: cell-based; conditions: 20 μM; PDBu stimulated; 48 hours
Experimental: Cellular cleavage of the urokinase-plasminogen activator receptor. Pericellular gelatinase-dependent uPAR cleavage was performed as described (Bjorklund et al., 2004). Briefly, OCI-AML-3 cells were stimulated with PDBu or left untreated and cultured for 48 hours in the presence of 20 μM IMB-10, the gelatinase-selective inhibitor (InhI) or vehicle (DMSO). uPAR and the cleaved form of uPAR D2+3 was detected with western blotting using a polyclonal antibody to uPAR (399R, American Diagnostica).

[10] = tested on: leukocytes emigrated into the peritoneum; experiment: Thioglycollate-induced peritonitis, leukocyte emigration in vivo; set-up: species or system mice; conditions: i.v.
Experimental: Neutrophil emigration in vivo. The mouse experiments were approved by the ethical committee for the animal experiments at the University of Helsinki. Inflammation was induced in BALB/cOlaHsd female maintained in the Viikki Laboratory Animal Centre by injecting 1 ml 4% thioglycollate broth in PBS i.p. followed by intravenous injections of chemicals (200 μl at a 20, 5 or 1 μg/ml concentration) or PBS after five minutes. Cells emigrated in the peritoneum after 3 or 24 h were counted using a hemocytometer. Statistical significance between groups in the peritonitis model was calculated with one-way ANOVA and found differences were analyzed by Bonferroni pairwise multiple comparison tests. Results with p<0.01 were deemed significant.

SMILES: CCN1C(=O)/C(=C\c2ccc(OCCCOc3cc(C)cc(C)c3)c(OC)c2)SC1=S [IMB-2, (E)-5-(4-(3-(3,5-dimethylphenoxy)propoxy)-3-methoxybenzylidene)-3-ethyl-2-thioxothiazolidin-4-one]
toxicity / effect on cell proliferation [1]: no significant effect
toxicity / effect on cell proliferation [2]: no significant effect
inhibition of cell migration on LLG-C4-GST (THP-1 cells [3]; 25 μM): did not siginificantly inhibit cell migration
inhibition of cell migration on LLG-C4-GST (THP-1 cells [3]; 100 μM, not shown): became inhibitory
inhibition of migration on fibrinogen-coated transwells (THP-1 cells [4]): less active
inhibition of migration on fibrinogen-coated transwells (OCI-AML-3 cells [5]): less active

inhibition at 50 µM (αM I domain): 75%
SMILES: O=C1/C(=C/c2ccc(-c3cccc([N+](=O)[O-])c3)o2)SC(=S)N1Cc1ccccc1 [IMB-6, (Z)-3-benzyl-5-((5-(3-nitrophenyl)furan-2-yl)methylene)-2-thioxothiazolidin-4-one]
toxicity / effect on cell proliferation [1]: toxic
toxicity / effect on cell proliferation [2]: toxic

effect on antibody binding (αM I domain; DDGW peptide 100 μM, chemical competitors 50 μM): only a marginal effect
SMILES: CC[C@H](C)C(=O)O[C@H]1C[C@@H](C)C=C2C=C[C@H](C)[C@H](CC[C@@H]3C[C@@H](O)CC(=O)O3)[C@H]21 [lovastatin, reference compound]

IC50 (αM I domain-GST fusion): 400 ± 200 nM
αM I domain binding to proMMP-9-E402Q-ΔHC (αM I domain / proMMP-9; 10 mM Ca2+): nearly completely antagonized
αM I domain binding to proMMP-9-E402Q-ΔHC (αM I domain / proMMP-9; 10 mM Mg2+): strong binding
αM I domain binding to proMMP-9-E402Q-ΔHC (αM I domain / proMMP-9; equimolar Ca2+ and Mg2+): intermediate
inhibition at 50 µM (αM I domain): 75%
inhibition of mAb IB4 binding to purified αMβ2 (αMβ2 integrin): inhibited
binding of TS1/22 and MEM83 antibodies to αL I domain (αL I domain): similarly affected
SMILES: Cc1ccccc1N1C(=O)/C(=C/C=C/c2ccccc2)SC1=S [IMB-10, (5Z)-5((E)-3-phenylallylidene)-2-thioxo-3-o-tolylthiazolidin-4-one]
toxicity / effect on cell proliferation [1]: no significant effect
toxicity / effect on cell proliferation [2]: no significant effect
adhesion to plastic after washing with 2.5 mM EDTA (THP-1 cells [6]): resisted detachment and remained adherent
adhesion to fibrinogen after washings with EDTA (THP-1 cells [7]; 50 nM PDBu, 25 μM, 2.5 mM EDTA): more resistant
cell adhesion in the absence of phorbol ester activation (THP-1 cells [7]; no phorbol ester, data not shown): did not increase cell adhesion
inhibition of cell migration on LLG-C4-GST (THP-1 cells [3]; 25 μM): potently inhibited cell migration
inhibition of migration on fibrinogen-coated transwells (THP-1 cells [4]): completely inhibited migration
inhibition of migration on fibrinogen-coated transwells (OCI-AML-3 cells [5]): completely inhibited migration
β2 integrin-independent migration of HT1080 cells [8]: no effect
inhibition of uPAR cleavage (uPAR D2+3 form) (OCI-AML-3 cells [9]): could not be inhibited
number of leukocytes emigrated into the peritoneum ([10]; after 24 hours): still low
number of leukocytes emigrated into the peritoneum ([10]; three hours after induction): dose-dependent decrease
